The source of these data is patent US5714142A, “Method and compositions for increasing the serum half-life of pharmacologically active agents by binding to transthyretin-selective ligands” (priority 1996, dated 1998).

One data set concerns the target TTR (transthyretin) (Homo sapiens, UniProt P02766). The experiment in a line: percent inhibition of radiolabelled T4 binding to TTR (procedure of R. Somack et al.). As to conditions: for inhibition at 10 µM: read-out: ~% T4 (percent inhibition of radiolabelled T4 binding to TTR); for inhibition at 1 µM: [I] 1 uM. The text has this:
Results are set forth in the following table, wherein "%T4 " represents the percent inhibition of radiolabelled T4 binding to TTR".

For data set [1] the following is noted: cited from earlier work.
In the next data set the test system is human astrocytoma cells. As to conditions: C. M. Divino et al. 1990; cited from earlier work.

Where two headings read alike, the source gives them in different places.

The term inhibition denotes the relative decrease from the control value, in per cent. On to `O=C(O)Cc1cc(I)c(Oc2cc(I)c(O)c(I)c2)c(I)c1`, for which the inhibition at 10 µM on TTR (transthyretin) ([I] 10 uM) was about 90%.
The same measure, in the same setting: the value for `O=C(O)Cc1cc(I)c(O)c(I)c1` was about 70%; that for `CC(C)(C)OC(=O)NCCCCCCNC(=O)Cc1cc(I)c(O)c(I)c1` was about 40%; that for `O=C(Cc1cc(I)c(O)c(I)c1)OCC#CCO` was about 90%.
Still for that read-out and setting: next, `O=C(O)CCc1cc(I)c(O)c(I)c1`: about 80%; `NCCOCCOCCNC(=O)Cc1cc(I)c(O)c(I)c1`: about 25%.
transthyretin: in data set [1] (up to about), the t1/2 result is “up to two”. Also, the “binding to cell sites” value in the data set on human astrocytoma cells was “binds to specific high affinity sites on human astrocytoma cells”.
Take `CC(C)(C)OC(=O)NCCOCCOCCNC(=O)Cc1cc(I)c(O)c(I)c1`: the inhibition at 10 µM on TTR (transthyretin) ([I] 10 uM) was about 45%.
The same measure, in the same setting: next, `NCCCCCCNC(=O)Cc1cc(I)c(O)c(I)c1`: about 15%.
In turn, `O=C(O)c1ccc(-c2cc(I)c(O)c(I)c2)cc1` yielded an inhibition at 1 µM on TTR (transthyretin) of about 80%.
superoxide dismutase: in data set [1] (unconjugated, G. D. Mao et al. 1989), the half-life result is “five”.
Take `Oc1c(I)cc(I)cc1I`: the inhibition at 10 µM on TTR (transthyretin) is about 90%.
For the compound `OCc1cc(I)c(O)c(I)c1`, the inhibition at 1 µM on TTR (transthyretin) is about 70%.
For `OCCc1cc(I)c(O)c(I)c1`, on TTR (transthyretin) ([I] 10 uM), the inhibition at 10 µM is about 85%.
